Assay results: the NIST ThermoML archive (doi:10.1016/j.jct.2013.07.002)
Numbers after ± are expanded uncertainties.

Conditions: 101.33 kPa, Liquid; for viscosity: Concentric cylinders viscometry; for thermal conductivity: Hot wire method

OCCO [1,2-ethanediol]
Conditions	thermal conductivity [W/m/K]	viscosity [mPa·s]
283.15 K	0.243 ± 0.015	35.44 ± 3.6
288.15 K	–	28 ± 2.8
293.15 K	–	21.89 ± 2.2
298.15 K	–	17.25 ± 1.7
303.15 K	0.246 ± 0.015	13.86 ± 1.4
308.15 K	–	11.64 ± 1.2
313.15 K	–	9.62 ± 0.97
323.15 K	0.249 ± 0.015	7.21 ± 0.72
343.15 K	0.259 ± 0.016	–
